# Data reported in patent US20250332112A1, “IONIZABLE CATIONIC LIPIDS FOR LIPID NANOPARTICLES” (GENEVANT SCIENCES GMBH, priority 2022, published 2025).
# Key:
# [1] = Lipid clearance from liver over time after human OTC mRNA LNP (LC-MS); assay type: in vivo; details: IV 0.5 mg/kg human OTC mRNA LNP, male C57BL/6 mice (n = 4)
# Description: (§1) LNP formulations encapsulating ornithine transcarbamylase mRNA were injected intravenously at the specified dose levels to male C57BL/6 mice (6-8 weeks old).
# (§2) Liver tissues were treated with PBS and homogenized with a FastPrep machine, 3 cycles of 5 m/s×15 s. Homogenates from the PBS-treated control animals was pooled and used for standard curve preparation. Samples were extracted into a deep well plate with 250 μL of an internal suitability standard. Plates were centrifuged for 15 min at 4° C. and 2000 rpm. Analysis was performed using an Agilent 6520 QTOF coupled to an Agilent 1290 UHPLC, using reverse-phase LC separation. Quantitation of the ionizable lipid was by MS/MS against a calibration curve spiked into appropriately matched blank matrix. Calibration used a similar class of synthetic lipid as internal standard.
# At various timepoints post-dose, lipid levels were assessed in the liver. Some novel ionizable lipids reported more rapid clearance rates compared to the benchmark (Table 19).
# [2] = tested on: luciferase activity in the liver; assay: Luciferase activity in liver after intravenous luciferase mRNA LNP; assay type: in vivo; details: Table 12; 0.5 mg/kg IV, 6 h post-IV administration, BALB/c mice (n = 4)
# [3] = Parent ionizable lipid remaining in liver at 6 h after luciferase mRNA LNP (LC-MS); assay type: in vivo; details: Table 18; 6 h after IV 0.5 mg/kg Luciferase mRNA LNP, female BALB/c mice (n = 4)
# [4] = tested on: human OTC expression in the liver; assay: Dose response of human OTC mRNA LNP, OTC expression in liver (ELISA); assay type: in vivo; details: 24 h, male C57BL/6 mice (n = 4)
# Description: as §1
# Liver homogenates were prepared with PBS, Halt protease inhibitor cocktail and FastPrep homogenization, standardized to 2 mg/mL protein with a BCA Protein Assay, and then analyzed by ELISA. Briefly, samples were diluted with PBS and plated on Nunc Maxisorp plates. A standard curve using human […] protein was prepared from the naïve animal controls (vehicle). After 2 h incubation the plates were washed, and the primary antibody was added. After 1 h incubation, the secondary antibody was added and incubated for another hour. After washing, TMB Substrate was added for color development and the reaction was stopped with 2 N sulfuric acid. The plate was read at 450/570 OD.
# At 24 h post-dose, the novel lipid formulations reported dose-dependent increases in human OTC expression in the liver (Table 15).
# [5] = tested on: EGFP expression in the liver; assay: EGFP expression in liver after intravenous EGFP mRNA LNP (ELISA); details: 0.5 mg/kg IV, 24 h post-IV administration, BALB/c mice (n = 4)
# Description: LNP formulations encapsulating enhanced green fluorescent protein mRNA were injected intravenously at 0.5 mg/kg to female BALB/c mice (6-8 weeks old). On day of injection, the LNP stocks were filtered and diluted to the required dosing concentration with phosphate buffered saline. At 24 hours post-administration, animals were anaesthetized with a lethal dosage of ketamine/xylazine. Liver samples (left lateral lobe) were collected, weighed, and flash frozen in liquid nitrogen. Liver samples were stored in FastPrep® tubes at −80° C. until analyzed for EGFP expression.
# Liver homogenates were prepared in cell extraction buffer, diluted, and analyzed for EGFP protein levels using ELISA, according to manufacturer's instructions (Abcam, GFP ELISA Kit).
# [6] = Particle characteristics of LNPs containing EGFP mRNA and novel ionizable lipids; assay type: physicochemical; details: EGFP mRNA LNP 1.6:54.6:32.8:10.9
# Description: The lipid solution contains 4 components: a PEG-conjugated lipid, an ionizable lipid, cholesterol, and a phospholipid (e.g., DSPC). Lipid stocks were prepared using the lipid identities and molar ratios as described, to achieve a total concentration of ˜7 mg/mL in 100% ethanol. […] Equal volumes of the lipid and nucleic acid solutions were blended at a flow rate of 400 mL/min through a T-connector, and diluted with ˜4 volumes of PBS, pH 7.4. Formulations were placed in Slide-A-Lyzer dialysis units (MWCO 10,000) and dialyzed overnight against 10 mM Tris, 500 mM NaCl, pH 8 buffer. Following dialysis, the formulations were concentrated to ˜0.6 mg/mL using VivaSpin concentrator units (MWCO 100,000) and dialyzed overnight against 5 mM Tris, 10% sucrose, pH 8 buffer. Formulations were filtered through a 0.2 μm syringe filter (PES membrane). Nucleic acid concentration was determined by the RiboGreen assay. Particle size and polydispersity were determined using a Malvern Nano Series Zetasizer.
# LNP formulations containing novel ionizable lipids all produced stable particles with high encapsulation efficiency (Tables 20-23).
# [7] = Parent ionizable lipid remaining in liver at 24 h after EGFP mRNA LNP (LC-MS); assay type: in vivo; details: 24 h after IV 0.5 mg/kg EGFP mRNA LNP, female BALB/c mice (n = 4)
# Description: as §2
# At 24 h post-dose, some treatment groups reported lower levels of novel ionizable lipid in mouse liver compared to the benchmark (Tables 28-31).
Compound,EGFP ([5]; Table 26) [pg/g liver],Final Product % EE ([6]; Table 22) [%],Final Product PDI ([6]; Table 22),Final Product Z-avg ([6]; Table 22) [nm],"Parent ionizable lipid remaining in liver, Average ([7]; Table 30) [nmol/g liver]",EGFP ([5]; Table 25) [pg/g liver],Final Product % EE ([6]; Table 21) [%],Final Product PDI ([6]; Table 21),Final Product Z-avg ([6]; Table 21) [nm],"Parent ionizable lipid remaining in liver, Average ([7]; Table 29) [nmol/g liver]",other results
CCCCCCCCCCC(CCCCCCC(=O)OCCC(CCCCC)CCCCC)N(CCCCCCCC(=O)OCCC(CCCCC)CCCCC)C(=O)CCCN(C)C (stereo not drawn) [Compound 67],–,–,–,–,–,–,–,–,–,–,"Parent ionizable lipid remaining in liver, Average ([1]; 0.25 h post-dose): 12.37 nmol/g liver; Parent ionizable lipid remaining in liver, Average ([1]; 1 h post-dose): 21.11 nmol/g liver; Parent ionizable lipid remaining in liver, Average ([1]; 3 h post-dose): 16.12 nmol/g liver; Parent ionizable lipid remaining in liver, Average ([1]; 6 h post-dose): 10.82 nmol/g liver; Parent ionizable lipid remaining in liver, Average ([1]; 24 h post-dose): 11.31 nmol/g liver; Parent ionizable lipid remaining in liver, Average ([1]; 168 h post-dose): 0.72 nmol/g liver; Luc Activity [2]: 1.31E+08 pg/g liver; Parent ionizable lipid remaining in liver, Average [3]: 31.32 nmol/g liver"
CCCCCCCCCCC(CCCCCCC(=O)OCC(CCCCCC)CCCCCCCC)N(CCCCCCC(F)(F)C(=O)OCC(CCCCCC)CCCCCCCC)C(=O)CCCN(C)C (stereo not drawn) [Compound 33],–,–,–,–,–,–,–,–,–,–,"Parent ionizable lipid remaining in liver, Average ([1]; 0.25 h post-dose): 33.97 nmol/g liver; Parent ionizable lipid remaining in liver, Average ([1]; 1 h post-dose): 98.57 nmol/g liver; Parent ionizable lipid remaining in liver, Average ([1]; 3 h post-dose): 76.20 nmol/g liver; Parent ionizable lipid remaining in liver, Average ([1]; 6 h post-dose): 86.57 nmol/g liver; Parent ionizable lipid remaining in liver, Average ([1]; 24 h post-dose): 58.68 nmol/g liver; Parent ionizable lipid remaining in liver, Average ([1]; 168 h post-dose): 6.22 nmol/g liver; Human OTC expression ([4]; 0.3 mg/kg IV): 660 ng hOTC/mg protein in liver; Human OTC expression ([4]; 1 mg/kg IV): 2954 ng hOTC/mg protein in liver; Human OTC expression ([4]; 3 mg/kg IV): 11080 ng hOTC/mg protein in liver"
"CCCCCCCCCCC(CCCCCCC(=O)OC(CCCCCCC)CCCCCCC)N(CCCCCCC(F)(F)C(=O)OC(CCCCCCC)CCCCCCC)C(=O)CCCN(C)C (stereo not drawn) [Compound 117, Pentadecan-8-yl 8-(N-(7,7-difluoro-8-oxo-8-(pentadecan-8-yloxy)octyl)-4-(dimethylamino)butanamido)octadecanoate]",3.15E+07,99,0.06,80,49.53,–,–,–,–,–,–
"CCCCCCCCCCN(C(=O)CCCN(C)C)C(CCCCCCCCC)CCCCCCC(F)C(=O)OC(CCCCCCC)CCCCCCC (stereo not drawn) [Compound 114, Pentadecan-8-yl 9-(N-decyl-4-(dimethylamino)butanamido)-2-fluorooctadecanoate]",4.29E+07,98,0.08,73,12.79,–,–,–,–,–,–
"CCCCCCCCCCC(CCCCCCC(=O)OCC(CCCCCC)CCCCCCCC)N(CCCCCCCCCC)C(=O)CCN(C)C (stereo not drawn) [Compound 107, 2-Hexyldecyl 8-(N-decyl-3-(dimethylamino)propanamido)octadecanoate]",3.66E+07,98,0.06,76,28.74,–,–,–,–,–,–
"CCCCCCCCCCN(C(=O)CCCN(C)C)C(CCCCCCCCC)CCCCCCC(F)C(=O)OC(CCCCC)CCCCC (stereo not drawn) [Compound 112, Undecan-6-yl 9-(N-decyl-4-(dimethylamino)butanamido)-2-fluorooctadecanoate]",4.78E+07,95,0.08,82,1.73,–,–,–,–,–,–
"CCCCCCCCCCN(C(=O)CCCN(C)C)C(CCCCCCCCC)CCCCC(F)(F)C(=O)OC(CCCCCCCC)CCCCCCCC (stereo not drawn) [Compound 110, Heptadecan-9-yl 7-(N-decyl-4-(dimethylamino)butanamido)-2,2-difluorohexadecanoate]",4.01E+07,98,0.11,67,33.07,–,–,–,–,–,–
"CCCCCCCCCCN(C(=O)CCCN(C)C)C(CCCCCCCCC)CCCCC(F)(F)C(=O)OCCC(CCCCCC)CCCCCC (stereo not drawn) [Compound 103, 3-Hexylnonyl 7-(N-decyl-4-(dimethylamino)butanamido)-2,2-difluorohexadecanoate]",–,–,–,–,–,9.54E+04,98,0.09,67,0.00,–
"CCCCCCCCCCON(C(=O)CCCCN(C)C)C(CCCCCCCCCC)CCCCCCC(=O)OCCC(CCCCCC)CCCCCC (stereo not drawn) [Compound 97, 3-Hexylnonyl 8-(N-(decyloxy)-5-(dimethylamino)pentanamido)octadecanoate]",–,–,–,–,–,1.48E+06,99,0.07,85,19.31,–
"CCCCCCCCCCN(C(=O)CCCN(C)C)C(CCCCCCCCC)CCCCC(F)(F)C(=O)OCC(CCCCCC)CCCCCCCC (stereo not drawn) [Compound 102, 2-Hexyldecyl 7-(N-decyl-4-(dimethylamino)butanamido)-2,2-difluorohexadecanoate]",–,–,–,–,–,1.94E+05,98,0.09,67,5.72,–
